Measured values published in patent US20100113612A1, “NOVEL USE OF HYDROXYTYROSOL AND OLIVE EXTRACTS/CONCENTRATE CONTAINING IT” (priority 2007, published 2010).

Tested on: Drosophila melanogaster (Oregon wild strain)
Experiment: Life extending experiments with Drosophila (lifespan study)
Format: in vivo
Settings: for Mean Lifespan: from age of 15 days on
Experimental: Drosophila melanogaster (Oregon wild strain) were used for lifespan study. Flies were reared in a light/dark cycle of 12:12 hours at a temperature of 25° C. and 65% relative humidity. Drosophila were fed with a standard medium consisting of 170 g of corn flour, 15 g of agar, 15 g of yeast, 10 ml of 100% propionic acid, 130 g of sucrose, and 2000 ml of water.
One-day-old Drosophila were transferred to plastic vials (25×100 mm) containing 2 ml of the diet medium, which was replaced every 3 days. 10 flies from each gender were kept in one vial. Hydroxytyrosol was provided in the diet to Drosophila from age of 15 days on. The Drosophilae were counted every 3 days until all flies died. Survivals were calculated at the end of the experiments after correcting total loss incurred from handling (Phillips J P, Campbell S D, Michaud D, Charbonneau M, Hilliker A J, Proc Natl Acad Sci USA. 1989, 86(8), 2761-2765: “Null mutation of copper/zinc superoxide dismutase in Drosophila confers hypersensitivity to paraquat and reduced longevity.”). The mean lifespan was calculated according to the method described by Cui X, Dai X G, Li W B, Zhang B L, Fang Y Z in Am. J. Chin. Med. 1999, 27(3-4), 407-413: “Effects of lu-duo-wei capsule on prolonging life span of housefly and Drosophila melanogaster.”

OCCc1ccc(O)c(O)c1 [Hydroxytyrosol, 3,4-dihydroxyphenylethanol]
% Increase of lifespan compared to control (1 mg/100 g in the diet): 8.23%
Mean Lifespan (1 mg/100 g in the diet): 75.14 days
% Increase of lifespan compared to control (5 mg/100 g in the diet): 11.55%
Mean Lifespan (5 mg/100 g in the diet): 77.44 days
% Increase of lifespan compared to control (10 mg/100 g in the diet): 3.89%
Mean Lifespan (10 mg/100 g in the diet): 72.12 days
% Increase of lifespan compared to control (20 mg/100 g in the diet): 6.97%
Mean Lifespan (20 mg/100 g in the diet): 74.26 days
% Increase of lifespan compared to control (50 mg/100 g in the diet): 4.02%
Mean Lifespan (50 mg/100 g in the diet): 72.21 days
lifespan extension (best effect) (male Drosophila, 5 mg/100 g diet): 11.5%
